How the values were obtained:
[1] = molar heat capacity at saturation pressure; conditions: Liquid
[2] = Molar enthalpy of transition or fusion; conditions: Crystal

Cc1cccc2cccnc12 [8-methylquinoline]
Conditions | mass density [kg/m3] | molar heat capacity [J/K/mol] | vapor or sublimation pressure [kPa]
315.61 K, Liquid, Inclined piston gauge | – | – | 0.0242
324.98 K, Liquid, Inclined piston gauge | – | – | 0.0466
334.99 K, Liquid, Inclined piston gauge | – | – | 0.0905
344.98 K, Liquid, Inclined piston gauge | – | – | 0.1674
354.98 K, Liquid, Inclined piston gauge | – | – | 0.2975
364.98 K, Liquid, Inclined piston gauge | – | – | 0.5091
374.98 K, Liquid, Inclined piston gauge | – | – | 0.8418
384.98 K, Liquid, Inclined piston gauge | – | – | 1.35
393.84 K, Liquid, Twin ebulliometer | – | – | 2.001
394.97 K, Liquid, Inclined piston gauge | – | – | 2.102
400.6 K, Liquid, Twin ebulliometer | – | – | 2.665
404.97 K, Liquid, Inclined piston gauge | – | – | 3.19
410.7 K, Liquid, Twin ebulliometer | – | – | 4.004
418.2 K, Liquid, Twin ebulliometer | – | – | 5.336
429.38 K, Liquid, Twin ebulliometer | – | – | 8.002
437.77 K, Liquid, Twin ebulliometer | – | – | 10.67
444.5 K, Liquid, Twin ebulliometer | – | – | 13.31
451.61 K, Liquid, Twin ebulliometer | – | – | 16.67
457.46 K, Liquid, Twin ebulliometer | – | – | 19.93
465.16 K, Liquid, Twin ebulliometer | – | – | 25.02
465.17 K, Liquid, Twin ebulliometer | – | – | 25.02
472.94 K, Liquid, Twin ebulliometer | – | – | 31.18
480.74 K, Liquid, Twin ebulliometer | – | – | 38.57
488.6 K, Liquid, Twin ebulliometer | – | – | 47.36
496.51 K, Liquid, Twin ebulliometer | – | – | 57.8
504.49 K, Liquid, Twin ebulliometer | – | – | 70.12
512.5 K, Liquid, Twin ebulliometer | – | – | 84.53
520.56 K, Liquid, Twin ebulliometer | – | – | 101.31
528.68 K, Liquid, Twin ebulliometer | – | – | 120.8
536.85 K, Liquid, Twin ebulliometer | – | – | 143.23
545.06 K, Liquid, Twin ebulliometer | – | – | 169
553.32 K, Liquid, Twin ebulliometer | – | – | 198.45
553.33 K, Liquid, Twin ebulliometer | – | – | 198.45
561.65 K, Liquid, Twin ebulliometer | – | – | 232
570.01 K, Liquid, Twin ebulliometer | – | – | 270
769.9 K, Gas, Measured as part of TC determination by DSC | 160.5 | – | –
775.8 K, Liquid, Measured as part of TC determination by DSC | 444.6 | – | –
784 K, Gas, Measured as part of TC determination by DSC | 244.7 | – | –
785.1 K, Liquid, Measured as part of TC determination by DSC | 349.8 | – | –
786 K, Gas, Measured as part of TC determination by DSC | 318.7 | – | –
[1], 269.69 K, Vacuum adiabatic calorimetry | – | 212.52 | –
[1], 280 K, Vacuum adiabatic calorimetry | – | 216.4 | –
[1], 282.82 K, Vacuum adiabatic calorimetry | – | 217.48 | –
[1], 296.93 K, Vacuum adiabatic calorimetry | – | 222.97 | –
[1], 298.15 K, Vacuum adiabatic calorimetry | – | 223.45 | –
[1], 300 K, Vacuum adiabatic calorimetry | – | 224.18 | –
[1], 310.97 K, Vacuum adiabatic calorimetry | – | 228.56 | –
[1], 312.23 K, Vacuum adiabatic calorimetry | – | 229.08 | –
[1], 320 K, Vacuum adiabatic calorimetry | – | 232.22 | –
[1], 326.77 K, Vacuum adiabatic calorimetry | – | 234.98 | –
[1], 340 K, Vacuum adiabatic calorimetry | – | 240.4 | –
[1], 341.89 K, Vacuum adiabatic calorimetry | – | 241.17 | –
[1], 357.58 K, Vacuum adiabatic calorimetry | – | 247.68 | –
[1], 360 K, Vacuum adiabatic calorimetry | – | 248.69 | –
[1], 373.8 K, Vacuum adiabatic calorimetry | – | 254.38 | –
[1], 380 K, Vacuum adiabatic calorimetry | – | 256.96 | –
[1], 389.63 K, Vacuum adiabatic calorimetry | – | 260.93 | –
[1], 400 K, Vacuum adiabatic calorimetry | – | 265.18 | –
[1], 405.69 K, Vacuum adiabatic calorimetry | – | 267.5 | –
[1], 420 K, Vacuum adiabatic calorimetry | – | 273.33 | –
[1], 422.45 K, Vacuum adiabatic calorimetry | – | 274.32 | –
[1], 437.11 K, Vacuum adiabatic calorimetry | – | 280.26 | –
[1], 440 K, Vacuum adiabatic calorimetry | – | 281.4 | –

Conditions | Critical temperature [K] | mass density [kg/m3] | molar heat capacity [J/K/mol]
323.14 K, Liquid | – | 1049.3 | –
348.13 K, Liquid | – | 1029 | –
373.12 K, Liquid | – | 1009.5 | –
398.12 K, Liquid | – | 988.5 | –
423.11 K, Liquid | – | 967.8 | –
448.11 K, Liquid | – | 947.5 | –
473.11 K, Liquid | – | 926.6 | –
498.11 K, Liquid | – | 904 | –
Liquid, DTA | 787 | – | –
[1], 460 K | – | – | 289.36
[1], 480 K | – | – | 297.35
[1], 500 K | – | – | 305.31
[1], 520 K | – | – | 313.17
[1], 540 K | – | – | 320.92
[1], 560 K | – | – | 328.51
[1], 580 K | – | – | 335.9
[1], 600 K | – | – | 343.02
[1], 620 K | – | – | 349.87
[1], 640 K | – | – | 356.47
[1], 660 K | – | – | 362.89
[1], 680 K | – | – | 369.38
[1], 700 K | – | – | 376.44

Conditions | Molar enthalpy of transition or fusion [kcal/mol] | Triple point temperature [K]
Crystal | – | 246.94
[2] | 2.565 | –
